The values that follow come from patent US4537719A, “4-Methylsulfonyl-azetidinone derivatives” (Ajinomoto Company Incorporated, priority 1981, dated 1985).

SMILES strings stand for the structures.

For this assay, the target named is T1, β-lactamase (Enterobacter cloacae, UniProt P05364).
T1 construct: obtained by destruction of the microbial cells with ultrasonic waves; endogenous in cells
T1 sequence (P05364 21-381): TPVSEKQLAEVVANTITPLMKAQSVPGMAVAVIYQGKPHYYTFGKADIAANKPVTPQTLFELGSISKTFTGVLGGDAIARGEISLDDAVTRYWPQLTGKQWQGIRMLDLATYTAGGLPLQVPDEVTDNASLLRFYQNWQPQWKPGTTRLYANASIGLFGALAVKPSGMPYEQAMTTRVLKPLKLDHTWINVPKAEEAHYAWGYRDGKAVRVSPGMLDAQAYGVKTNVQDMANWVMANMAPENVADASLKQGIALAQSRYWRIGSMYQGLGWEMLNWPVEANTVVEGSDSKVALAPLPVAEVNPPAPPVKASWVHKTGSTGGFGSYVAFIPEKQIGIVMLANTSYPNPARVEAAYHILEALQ
Description: β-lactamase inhibition (iodometric absorbance at 575 nm; β-lactamase solution obtained by ultrasonic destruction of microbial cells). Format: biochemical. Particulars: Enterobacter cloacae used as the β-lactamase-producing microorganism; pH 7.0, 30° C., 20 minutes; sample concentration not given. As to the method: A phosphate buffer solution (pH 7.0, 0.5M, 0.2 ml), a sample*, which is a β-lactamase inhibiting agent, dissolved in the same buffer solution as mentioned above, and water (10 ml) were put in a test tube. In this tube, ampicillin (2 mM, 0.2 ml) in the case of penicillinase, and cephaloridine (2 mM, 0.2 ml) in the case of cephalosporinase, were added. This mixture was stirred moderately for 5 minutes at 30° C. in a thermostat. Microbial cells producing β-lactamase were collected, washed and suspended in the same buffer solution as above and thereto a β-lactamase solution (0.1 ml) obtained by destruction of the microbial cells with ultrasonic waves was added and reacted for 20 minutes.
The reaction was stopped by adding sodium tungstate (0.15M, pH 4.0, 1 ml) and an iodo reagent (3 ml) having iodine (0.1 mM), potassium iodide (1.6 mM) and 0.4% starch solution, (pH 6.0) was added thereto and was allowed to stand for 20 minutes. The absorbance was determined at 575 nm.
On the other hand, the same experiment as above without the sample (Control) was carried out and the absorbances were determined in the same manner as above.
From each determined value as obtained above, the difference between the absorbance of the blank and that of the sample, referred to as As, and the difference between the absorbance of the blank and that of the Control referred to as AB were obtained, and therefrom the inhibiting ratio was calculated by the following equation:
Inhibiting Ratio(%)=(AS/AB)×100
Some of the results as obtained above, in which Enterobacter cloacae was used as the β-lactamase-producing microorganism was used are as follows: […]
On to `COC(=O)C(C(=O)O)N1C(=O)CC1SC` (stereo not shown) [Sample 1, 1-(1-carboxy-1-methyoxycarbonylmethyl)-4-methylthio-2-azetidinone], for which the “Inhibiting Ratio (%)” value stood at 46.2%. `COC(=O)C(C(=O)O)N1C(=O)CC1S(C)(=O)=O` (stereo not shown) [Sample 2, 1-(1-carboxy-1-methoxycarbonylmethyl)-4-methylsulfonyl-2-azetidinone]: the “Inhibiting Ratio (%)” value is given as 51.4%.

Turning to `CC(C)=C(C(=O)O)N1C(=O)[C@@H](NC(=O)[C@H](N)c2ccccc2)[C@H]1S(C)(=O)=O` [Sample 3, (3R,4R)-1-(1-carboxy-2-methylprope-1-nyl)-4-methylsulfonyl-3-[D-(-)-α-aminophenylacetamide]-2-azetidinone], the “Inhibiting Ratio (%)” value is given as 27.6%. Take `CC(C)=C(C(=O)O)N1C(=O)[C@@H](N)[C@H]1S(C)(=O)=O` [Sample 4, (3R, 4R)-1-(1-carboxy-2-methylprope-1-nyl)-4-methylsulfonyl-3-amino-2-azetidinone]: the “Inhibiting Ratio (%)” value is reported as 35.8%.
